# Reference: US11478551B2, “Long-acting adrenomedullin derivative” (University of Miyazaki, priority 2015, dated 2022)
# Experiments:
# [1] = system: adjuvant-induced arthritis models; test: Adjuvant-induced arthritis model; type: in vivo; conditions: 1 and 10 nmol/kg subcutaneous, rat
# Protocol: The compound (8) was subcutaneously administered to each rat. […] Physiological saline was administered as a vehicle to a control group. The paw volumes and swelling rates of the right and left legs were measured on days 0 (day before the adjuvant administration), 4, 7, 10 and 14 using a paw volume measurement apparatus (MK-550, Muromachi Kikai Co., Ltd.). Inflammation scores on days 0 (day before the adjuvant administration), 4, 7, 10 and 14 were evaluated on the basis of the scores shown in Table 5.
# [2] = Measurement over time of AM concentration in plasma after subcutaneous administration (RIA); type: in vivo; conditions: 10 nmol/kg subcutaneous single dose, rat
# Protocol: 1 day, 7 days and 10 days after the start of the administration, 50 mg of pentobarbital was intraperitoneally administered, and 300 μL of blood was collected each time from the tail vain under anesthesia. Immediately, 300 μg of EDTA-2Na and […] of aprotinin were added to the obtained blood sample, and the mixture was centrifuged under conditions involving 10 minutes and 3000 rpm to obtain plasma. The AM concentration in the plasma of each sample was measured by radioimmunoassay (RIA) (Kitamura K, Ichiki Y, Tanaka M et al., Immunoreactive adrenomedullin in human plasma. FEBS Lett., vol. 341, p. 288-90, 1994).
# The compound (37) prepared in experiment III-1 was subcutaneously administered in a single dose of 30 nmol/kg to each rat, and time-dependent change in the concentration in blood of the adrenomedullin derivative was observed. The compound (37) dissolved in physiological saline was subcutaneously administered to each 7- to 8-week-old male Wistar rat (approximately 250 g). 1 day, 2 days, 4 days, 7 days and 9 days after the start of the administration, 50 mg of pentobarbital was intraperitoneally administered, and 300 μL of blood was collected each time from the tail vain under anesthesia. Immediately, 300 μg of EDTA-2Na and […] of aprotinin were added to the obtained blood sample, and the mixture was centrifuged under conditions involving 10 minutes and 3000 rpm to obtain plasma. The AM concentration in the plasma of each sample was measured by RIA.
# [3] = system: TNBS-induced colitis models; test: 2,4,6-trinitrobenzenesulfonic acid (TNBS)-induced colitis model; type: in vivo; conditions: 1 nmol/kg subcutaneous, rat
# Protocol: 7-week-old male Wistar rats were acclimatized for 1 week. […] Fasting was carried out for 24 hours concurrently with the subcutaneous administration to remove stool from the body. Colitis models were prepared by procedures described below. The concentration of TNBS (Nacalai Tesque, Inc.) was adjusted to 30 mg/500 μL (in a 50% aqueous ethanol solution). 50 mg of pentobarbital was intraperitoneally administered, and a polyethylene catheter was inserted by 8 cm from the anus under anesthesia while slowly rotated, followed by injection of 500 μL of the drug solution (day 1). Then, the inverted state was maintained for 2 minutes. The body weight and the form of diarrhea were evaluated every day. 14 days later, 50 mg of pentobarbital was intraperitoneally administered, and blood collection from the heart and excision of the large intestine were carried out under anesthesia. The length and weight of the excised intestinal tract were measured and compared between the groups. […] In the diagram, (a) depicts the day on which the compound (8) or physiological saline was subcutaneously administered and fasting was started, and (b) depicts the day on which TNBS was administered.
# [4] = system: spontaneously hypertensive rat (SHR); test: Effect of suppressing increase in blood pressure in spontaneously hypertensive rat (SHR) fed high-salt diet; type: in vivo; conditions: 336 μg/100 μL subcutaneous single dose, SHR on high-salt diet (8% NaCl), 9 days after administration
# Protocol: Each 8-week-old male SHR (approximately 200 g) was fed with a high-salt diet (8% NaCl). The compound (8) was administered in a form dissolved in physiological saline at the time of feeding with the high-salt diet. 100 μL of physiological saline was subcutaneously administered in a single dose to each male SHR (approximately 200 g) in the same condition as above in a control group.
# [5] = system: DSS-induced colitis models; test: Dextran sodium sulfate (DSS)-induced colitis model; type: in vivo; conditions: mouse
# Protocol: The compound (8) was subcutaneously administered to the back of each mouse. On the day following the administration (day 0), colitis model preparation was started by administration of 3% DSS as drinking water for 7 days. […] Physiological saline was administered as a vehicle to a control group. The body weight and the form of stool were evaluated on days 3, 5 and 7 counted from the start date of the DSS administration (day 0) on the basis of the scores shown in Table 4.
# wound models = test: Wound model; type: in vivo, mouse; conditions: 1 nmol/kg subcutaneous single dose, BALB/c-nu/nu mice
# Protocol: 5-week-old male BALB/c-nu/nu mice (Charles River Laboratories Japan, Inc.) were purchased and acclimatized for 1 week. Then, 5 mg of pentobarbital was intraperitoneally administered to each mouse for anesthesia. The skin was disinfected using ethanol for disinfection. The skin of the back was pulled with fingers with the mouse in the lateral position, and pressed and cut with a round knife for skin biopsy (disposable biopsy punch with plunger system) from one side toward the other side on a disinfected mat for drafting to prepare two defective injuries each having a diameter of 6 mm. […] Physiological saline was administered as a vehicle to a control group. A dressing was applied to cover the back including the wound sites. Change in the wound areas were observed over time.
# Wistar rat = test: Blood pressure-lowering effect, single intravenous dose in rat under anesthesia; type: in vivo; conditions: 1 nmol/kg, single dose into the vein
# Protocol: Each compound prepared in experiments I-1 and II-1 or full-length AM was administered in a single dose of 1 nmol/kg into the vein of each rat under anesthesia, and change in the blood pressure of the rat was observed. Each 11 to 14-week-old male Wistar rat was anesthetized by the inhalation of isoflurane. After tracheotomy, inhalational anesthesia was controlled at an isoflurane concentration of 1.5 to 2.5% and a flow rate of 0.6 to 0.8 L/min. The right jugular vein was isolated from the rat, and a catheter tube corresponding to 26 G was inserted thereto. Next, the left carotid artery was isolated from the rat thus treated, and a catheter tube corresponding to 23 G was inserted thereto. From the catheter tube of the right jugular vein, a physiological saline-heparin solution (physiological saline: 100 mL; heparin: 1000 units) was infused at 2.4 mL/hr. […] The catheter inserted in the carotid artery was connected to a pressure transducer. […] In the diagram, the ordinate depicts a difference obtained by subtracting the average blood pressure before the administration of each drug from the average blood pressure at the time of the administration of each drug.
substance,measurement,setting,value
GL-2-branched CH3O-PEG (60k)-CH2-^αNH-(h.AM (1-52)) [Compound (8)],arthritis score (inflammation score) as compared to the vehicle control group,[1],significantly decreased
same,paw volume as compared to the vehicle control group,[1],significantly decreased
same,swelling rate as compared to the vehicle control group,[1],significantly decreased
same,level at time molar at 24 h,[2]; 1 day later,≥ 2.6 nM
same,level at time molar at 24 h,[2]; 7 days later,≥ 0.74 nM
same,level at time molar at 24 h,[2]; 10 days later,≥ 0.28 nM
same,pathological changes of the large intestine (autopsy report),[3],evidently fewer
same,weight loss due to the development of colitis,[3],improved
same,decrease in the intestinal tract length of the large intestine compared to the vehicle control group,[3]; 14 days later,evidently suppressed
same,increase in the weight of the large intestine compared to the vehicle control group,[3]; 14 days later,evidently suppressed
same,increase in the blood pressure compared to the control group,[4],suppressed
same,wet weight of the intestinal tract as compared to the vehicle control group,[5]; 5 nmol/kg subcutaneous,tendency to decrease
same,length of the intestinal tract as compared to the vehicle control group,[5]; 25 nmol/kg subcutaneous,tendency to increase
same,"total score (weight loss, stool consistency, bleeding/mucous and bloody stool)","[5]; 5 and 25 nmol/kg subcutaneous, 3% DSS",significant decrease
same,reduction in the wound areas compared to the vehicle control group,wound models,faster
same,"decrease in the blood pressure immediately after the administration, as compared to compound (2)",Wistar rat,further suppressed
same,rapidly decreased blood pressure immediately after the administration,Wistar rat,not observed
